One test has as its target T1, Human PD-L1/PD-1 (Homo sapiens, UniProt Q9NZQ7).
T1 construct: made in house; host or cells: HEK293T
Briefly: HTRF PD-1-Ig/PD-L1-His binding assay (human PD-L1). To be noted: cluster symbol; read-out: HTRF IC50 cluster. Summed up: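 Soluble Fc-fused PD-1 and His-tagged PD-L1 (truncated before the transmembrane region) were combined in dPBS with 0.1% (w/v) BSA and 0.05% (v/v) Tween-20. Binding was read by HTRF using europium cryptate anti-Ig antibody (1 nM final) and APC anti-His antibody (20 nM final).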

Test [1] has as its target T2, LK35.2-hPD-L1 cells / PE-labeled PD-1-Ig (Homo sapiens, UniProt Q9NZQ7).
T2 construct: expressed in transfected cells; host or cells: LK35.2 mouse B cell line
The test is described as follows: LK35.2-hPD-L1 cell binding high-content screening assay. It counts as cell-based. To be noted: cell binding assay, cell line not given; cluster symbol; read-out: CBA IC50 cluster. Summed up:
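Binding of PE-conjugated human PD-1-Ig (1 nM final) to human PD-L1 stably expressed on a mouse B-cell line (LK35.2) was measured by high-content imaging after washes. Compound and labeled PD-1-Ig were co-incubated 1 h at 37 °C with cells in RPMI/10% FCS.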

Each structure is given as a SMILES string. Starred links: 1 amine or outer side, 2 acyl side, 3 side chain; linkers in the order of their positions; H or OH if unused. Positions of bridges follow the written chain, without caps; N, C: chain ends. Non-standard residues stand in square brackets, D forms with d. Residues, ends and D or L forms follow the SMILES beside them. Phe(3,4,5-F3) = N[C@@H](Cc1cc(F)c(F)c(F)c1)C(=O)O; Bip = N[C@@H](Cc1ccc(-c2ccccc2)cc1)C(=O)O; Dopa = N[C@@H](Cc1ccc(O)c(O)c1)C(=O)O; d(cisHyp) = O=C(O)[C@H]1C[C@@H](O)CN1; Bta = N[C@@H](Cc1csc2ccccc12)C(=O)O; Hyp = O=C(O)[C@@H]1C[C@@H](O)CN1; NMeF = CN[C@@H](Cc1ccccc1)C(=O)O; X4 = O=C([C@H]1COCCN1[*:1])[*:2]; 4Pal = N[C@@H](Cc1ccncc1)C(=O)O; dHyp = O=C(O)[C@H]1C[C@H](O)CN1; NMeNle = CCCC[C@H](NC)C(=O)O; dPip = O=C(O)[C@H]1CCCCN1; NMeA = CN[C@@H](C)C(=O)O; Orn = NCCC[C@H](N)C(=O)O; Dab = NCC[C@H](N)C(=O)O; Dap = NC[C@H](N)C(=O)O; Sar = CNCC(=O)O Some results are limits rather than exact numbers.

T2 sequence (Q9NZQ7 19-290): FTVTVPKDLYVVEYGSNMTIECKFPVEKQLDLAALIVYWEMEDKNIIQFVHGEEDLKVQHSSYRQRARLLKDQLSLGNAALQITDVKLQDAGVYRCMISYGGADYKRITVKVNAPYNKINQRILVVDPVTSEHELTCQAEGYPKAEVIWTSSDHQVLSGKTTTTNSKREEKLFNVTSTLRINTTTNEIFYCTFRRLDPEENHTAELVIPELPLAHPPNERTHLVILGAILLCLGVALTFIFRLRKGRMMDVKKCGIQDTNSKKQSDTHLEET
T1 sequence (Q9NZQ7 with tags, fused parts or gaps): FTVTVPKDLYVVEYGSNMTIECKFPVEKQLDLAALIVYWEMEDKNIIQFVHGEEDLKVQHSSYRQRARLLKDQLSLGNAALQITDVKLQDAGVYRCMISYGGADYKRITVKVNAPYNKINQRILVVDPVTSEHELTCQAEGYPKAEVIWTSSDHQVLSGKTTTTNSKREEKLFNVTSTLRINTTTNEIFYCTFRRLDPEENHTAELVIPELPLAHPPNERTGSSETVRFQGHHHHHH

One may read the IC50 as the concentration needed to halve the response being measured. Regarding `CCCC[C@H]1C(=O)N2C[C@@H](O)C[C@@H]2C(=O)N[C@@H](CC(N)=O)C(=O)N[C@@H](C(C)C)C(=O)N(C)[C@@H](Cc2ccccc2)C(=O)N[C@@H](CCC(N)=O)C(=O)N2CCOC[C@@H]2C(=O)N[C@@H](Cc2c[nH]c3ccccc23)C(=O)N[C@@H](Cc2ccc(O)cc2)C(=O)N[C@@H](CCCN)C(=O)N[C@H](C(=O)NCC(N)=O)CSCC(=O)N[C@@H](Cc2cc(F)c(F)c(F)c2)C(=O)N(C)[C@@H](Cc2ccccc2)C(=O)N1C` [Example 3605] ({CH2CO}-[Phe(3,4,5-F3)][NMeF][NMeNle][dHyp]NV[NMeF]Q[X4]WY[Orn]CG-NH2; thioether N-13), the concentration for half-maximal inhibition (IC50) at Human PD-L1/PD-1 fell in the range of 0.385 to 6.74 nM; in test [1], 0.158 to 4.71 nM.
Take `CCCC[C@H]1C(=O)N2C[C@@H](O)C[C@@H]2C(=O)N[C@@H](CC(N)=O)C(=O)N[C@@H](C(C)C)C(=O)N(C)[C@@H](Cc2ccccc2)C(=O)N[C@@H](Cc2ccc(O)cc2)C(=O)N2CCOC[C@@H]2C(=O)N[C@@H](Cc2c[nH]c3ccccc23)C(=O)N[C@@H](Cc2ccc(O)cc2)C(=O)N[C@@H](CCCN)C(=O)N[C@H](C(=O)NCC(N)=O)CSCC(=O)N[C@@H](Cc2cc(F)c(F)c(F)c2)C(=O)N(C)[C@@H](Cc2ccccc2)C(=O)N1C` [Example 3606] ({CH2CO}-[Phe(3,4,5-F3)][NMeF][NMeNle][dHyp]NV[NMeF]Y[X4]WY[Orn]CG-NH2; thioether N-13): the values for the half-inhibitory concentration (IC50) (at Human PD-L1/PD-1; in test [1]) were 0.385 to 6.74 nM and 0.158 to 4.71 nM, respectively.
The matching figures for `CCCC[C@H]1C(=O)N2C[C@@H](O)C[C@@H]2C(=O)N[C@@H](CC(N)=O)C(=O)N[C@@H](C(C)C)C(=O)N(C)[C@@H](Cc2ccccc2)C(=O)N[C@@H](CCCN)C(=O)N2CCOC[C@@H]2C(=O)N[C@@H](Cc2c[nH]c3ccccc23)C(=O)N[C@@H](Cc2ccc(O)cc2)C(=O)N[C@@H](CCCN)C(=O)N[C@H](C(=O)NCC(N)=O)CSCC(=O)N[C@@H](Cc2cc(F)c(F)c(F)c2)C(=O)N(C)[C@@H](Cc2ccccc2)C(=O)N1C` [Example 3607] ({CH2CO}-[Phe(3,4,5-F3)][NMeF][NMeNle][dHyp]NV[NMeF][Orn][X4]WY[Orn]CG-NH2; thioether N-13): 0.385 to 6.74 nM and 0.158 to 4.71 nM.
The corresponding values for `CCCC[C@H]1C(=O)N2C[C@H](O)C[C@@H]2C(=O)N[C@@H](CC(N)=O)C(=O)N[C@@H](C(C)C)C(=O)N(C)[C@@H](Cc2ccccc2)C(=O)N[C@@H](CCC(=O)O)C(=O)N2CCOC[C@@H]2C(=O)N[C@@H](Cc2c[nH]c3ccccc23)C(=O)N[C@@H](Cc2ccc(O)cc2)C(=O)N[C@@H](CCCN)C(=O)N[C@H](C(=O)NCC(N)=O)CSCC(=O)N[C@@H](Cc2cc(F)c(F)c(F)c2)C(=O)N(C)[C@@H](Cc2ccccc2)C(=O)N1C` [Example 3608] ({CH2CO}-[Phe(3,4,5-F3)][NMeF][NMeNle][d(cisHyp)]NV[NMeF]E[X4]WY[Orn]CG-NH2; thioether N-13) are 0.385 to 6.74 nM and 0.158 to 4.71 nM.
The matching figures for `CCCC[C@H]1C(=O)N(C)CC(=O)N[C@@H](CC(=O)O)C(=O)N[C@@H](C(C)C)C(=O)N(C)[C@@H](Cc2ccccc2)C(=O)N[C@@H](Cc2ccc(O)cc2)C(=O)N(C)CC(=O)N[C@@H](Cc2c[nH]c3ccccc23)C(=O)N[C@@H](Cc2ccc(O)c(O)c2)C(=O)N[C@@H](CC(C)C)C(=O)N[C@H](C(=O)NCC(N)=O)CSCC(=O)N[C@@H](Cc2cc(F)c(F)c(F)c2)C(=O)N(C)[C@@H](Cc2ccccc2)C(=O)N1C` [Example 3609] ({CH2CO}-[Phe(3,4,5-F3)][NMeF][NMeNle][Sar]DV[NMeF]Y[Sar]W[Dopa]LCG-NH2; thioether N-13): 0.385 to 6.74 nM and 0.158 to 4.71 nM.
As for `CCCC[C@H]1C(=O)N(C)CC(=O)N[C@@H](CC(N)=O)C(=O)N[C@@H](C(C)C)C(=O)N(C)[C@@H](Cc2ccccc2)C(=O)N[C@@H](Cc2ccc(O)cc2)C(=O)N(C)CC(=O)N[C@@H](Cc2c[nH]c3ccccc23)C(=O)N[C@@H](Cc2ccc(O)cc2)C(=O)N[C@@H](CCCN)C(=O)N[C@H](C(=O)NCC(N)=O)CSCC(=O)N[C@@H](Cc2ccccc2)C(=O)N[C@@H](Cc2ccncc2)C(=O)N1C` [Example 3610] ({CH2CO}-F[4Pal][NMeNle][Sar]NV[NMeF]Y[Sar]WY[Orn]CG-NH2; thioether N-13), the 50% inhibitory concentration (IC50) at Human PD-L1/PD-1 was 6.76 to 30.3 nM; in test [1], 4.78 to 72.9 nM.
As for `CCCC[C@H]1C(=O)N(C)CC(=O)N[C@@H](CC(N)=O)C(=O)N[C@@H](C(C)C)C(=O)N(C)[C@@H](Cc2ccccc2)C(=O)N[C@@H](Cc2ccc(O)cc2)C(=O)N(C)CC(=O)N[C@@H](Cc2c[nH]c3ccccc23)C(=O)N[C@@H](Cc2ccc(O)cc2)C(=O)N[C@@H](CCCN)C(=O)N[C@H](C(=O)NCC(N)=O)CSCC(=O)N[C@@H](Cc2ccccc2)C(=O)N[C@@H](Cc2ccc(-c3ccccc3)cc2)C(=O)N1C` [Example 3611] ({CH2CO}-F[Bip][NMeNle][Sar]NV[NMeF]Y[Sar]WY[Orn]CG-NH2; thioether N-13), the 50% inhibitory concentration (IC50) at Human PD-L1/PD-1 was more than 30.5 nM; in test [1] it was more than 74.3 nM.
The matching figures for `CCCC[C@H]1C(=O)N2C[C@@H](O)C[C@@H]2C(=O)N[C@@H](CC(N)=O)C(=O)N[C@@H](C(C)C)C(=O)N(C)[C@@H](Cc2ccccc2)C(=O)N[C@@H](Cc2ccc(O)cc2)C(=O)N2CCCC[C@@H]2C(=O)N[C@@H](Cc2c[nH]c3ccccc23)C(=O)N[C@@H](Cc2ccc(O)cc2)C(=O)N[C@@H](CCCN)C(=O)N[C@H](C(=O)NCC(N)=O)CSCC(=O)N[C@@H](Cc2cc(F)c(F)c(F)c2)C(=O)N(C)[C@@H](Cc2ccccc2)C(=O)N1C` [Example 3613] ({CH2CO}-[Phe(3,4,5-F3)][NMeF][NMeNle][dHyp]NV[NMeF]Y[dPip]WY[Orn]CG-NH2; thioether N-13): 0.385 to 6.74 nM and 0.158 to 4.71 nM.
For `CCCC[C@H]1C(=O)N(C)[C@@H](CCCC)C(=O)N[C@@H](CCCNC(=N)N)C(=O)N[C@H](C(=O)NCC(N)=O)CSCC(=O)N[C@@H](Cc2ccccc2)C(=O)N(C)[C@@H](C)C(=O)N[C@@H](CC(N)=O)C(=O)N2CCC[C@H]2C(=O)N[C@@H](Cc2cnc[nH]2)C(=O)N[C@@H](CC(C)C)C(=O)N(C)CC(=O)N[C@@H](Cc2c[nH]c3ccccc23)C(=O)N[C@@H](CCN)C(=O)N[C@@H](Cc2c[nH]c3ccccc23)C(=O)N1C` [Example 5001] ({CH2CO}-F[NMeA]NPHL[Sar]W[Dab]W[NMeNle][NMeNle]RCG-NH2; thioether N-14), the figures for the IC50 (on Human PD-L1/PD-1; in test [1]) were 0.385 to 6.74 nM and 4.78 to 72.9 nM, respectively.
The corresponding values for `CCCC[C@H]1C(=O)N(C)[C@@H](CCCC)C(=O)N[C@@H](CCCNC(=N)N)C(=O)N[C@H](C(=O)NCC(N)=O)CSCC(=O)N[C@@H](Cc2ccccc2)C(=O)N(C)[C@@H](C)C(=O)N[C@@H](CC(N)=O)C(=O)N2CCC[C@H]2C(=O)N[C@@H](Cc2cnc[nH]2)C(=O)N[C@@H](CC(C)C)C(=O)N(C)CC(=O)N[C@@H](Cc2c[nH]c3ccccc23)C(=O)N[C@@H](CN)C(=O)N[C@@H](Cc2c[nH]c3ccccc23)C(=O)N1C` [Example 5002] ({CH2CO}-F[NMeA]NPHL[Sar]W[Dap]W[NMeNle][NMeNle]RCG-NH2; thioether N-14) are more than 30.5 nM and more than 74.3 nM.
Consider `CCCC[C@H]1C(=O)N(C)[C@@H](CCCC)C(=O)N[C@@H](CC(C)C)C(=O)N[C@H](C(=O)NCC(N)=O)CSCC(=O)N[C@@H](Cc2ccc(O)cc2)C(=O)N(C)[C@@H](C)C(=O)N[C@@H](CC(N)=O)C(=O)N2CCC[C@H]2C(=O)N[C@@H](Cc2c[nH]cn2)C(=O)N[C@@H](CCC(=O)O)C(=O)N2C[C@H](O)C[C@H]2C(=O)N[C@@H](Cc2c[nH]c3ccccc23)C(=O)N[C@@H](CO)C(=O)N[C@@H](Cc2c[nH]c3ccccc23)C(=O)N1C` [Example 5003] ({CH2CO}-Y[NMeA]NPHE[Hyp]WSW[NMeNle][NMeNle]LCG-NH2; thioether N-14), for which the IC50 at Human PD-L1/PD-1 was in the range of 6.76 to 30.3 nM; in test [1], 0.158 to 4.71 nM.
The matching figures for `CCCC[C@H]1C(=O)N2CCC[C@@H]2C(=O)N[C@@H](CCCNC(=N)N)C(=O)N[C@H](C(=O)NCC(N)=O)CSCC(=O)N[C@@H](Cc2ccc(O)cc2)C(=O)N(C)[C@@H](C)C(=O)N[C@@H](CC(N)=O)C(=O)N2CCC[C@H]2C(=O)N[C@@H](Cc2cnc[nH]2)C(=O)N[C@@H](CC(C)C)C(=O)N2CCC[C@H]2C(=O)N[C@@H](Cc2c[nH]c3ccccc23)C(=O)N[C@@H](CO)C(=O)N[C@@H](Cc2csc3ccccc23)C(=O)N1C` [Example 5004] ({CH2CO}-Y[NMeA]NPHLPWS[Bta][NMeNle][dP]RCG-NH2; thioether N-14): 6.76 to 30.3 nM and 4.78 to 72.9 nM.
As for `CCCC[C@H]1C(=O)N(C)[C@@H](COc2cccc(C)c2)C(=O)N[C@@H](CCCNC(=N)N)C(=O)N[C@H](C(=O)NCC(N)=O)CSCC(=O)N[C@@H](Cc2ccc(O)cc2)C(=O)N(C)[C@@H](C)C(=O)N[C@@H](CC(N)=O)C(=O)N2CCC[C@H]2C(=O)N[C@@H](CN)C(=O)N[C@@H](CC(C)C)C(=O)N2C[C@H](O)C[C@H]2C(=O)N[C@@H](Cc2c[nH]c3ccccc23)C(=O)N[C@@H](CO)C(=O)N[C@@H](Cc2csc3ccccc23)C(=O)N1C` [Example 5005], the IC50 at Human PD-L1/PD-1 was 6.76 to 30.3 nM; in test [1], 4.78 to 72.9 nM.
The matching figures for `CCCC[C@H]1C(=O)N(C)[C@@H](CCCC)C(=O)N[C@@H](CCN)C(=O)N[C@H](C(=O)NCC(N)=O)CSCC(=O)N[C@@H](Cc2ccccc2)C(=O)N(C)[C@@H](C)C(=O)N[C@@H](CC(N)=O)C(=O)N2CCC[C@H]2C(=O)N[C@@H](Cc2cnc[nH]2)C(=O)N[C@@H](CC(C)C)C(=O)N(C)CC(=O)N[C@@H](Cc2c[nH]c3ccccc23)C(=O)N[C@@H](CO)C(=O)N[C@@H](Cc2c[nH]c3ccccc23)C(=O)N1C` [Example 5006] ({CH2CO}-F[NMeA]NPHL[Sar]WSW[NMeNle][NMeNle][Dab]CG-NH2; thioether N-14): 0.385 to 6.74 nM and 4.78 to 72.9 nM.

(Values after US9850283B2, “Macrocyclic inhibitors of the PD-1/PD-L1 and CD80(B7-1)/PD-L1 protein/protein interactions” (BRISTOL-MYERS SQUIBB COMPANY, priority 2013, dated 2017).)
